The text below walks through data of PMC6204601, “In Vivo Selectivity and Localization of Reactive Oxygen Species (ROS) Induction by Osmium Anticancer Complexes That Circumvent Platinum Resistance” (Journal of Medicinal Chemistry, 2018).

What is called LC50 is the concentration that kills 50% of the test population.

For data set [1], the system named is A2780 ovarian carcinoma cells. Kind of data set: Sulforhodamine B antiproliferative assay, A2780. It counts as cell-based, human. As to conditions: 24 h drug exposure + 72 h recovery in drug-free medium, SRB; read-out: Antiproliferative activity (IC50) A2780 Ovarian.
The subject of data set [2] is HOF human ovarian fibroblasts. Kind of data set: Sulforhodamine B antiproliferative assay, HOF. As to conditions: 24 h drug exposure + 72 h recovery, SRB; non-cancer fibroblasts. The class given is cell-based. The method, then: (§1) In vitro biological studies
(§2) Sulforhodamine B cell viability colorimetric assay.
(§3) by ICP-OES analysis for metal content).
(§4) 72 h recovery time (310 K).
(§5) using slowly-running tap water and air dried.
(§6) Data were processed using Microsoft Excel

In data set [3] the test system is A549 lung carcinoma cells. Kind of data set: Sulforhodamine B antiproliferative assay, A549. The class given is cell-based, human. As to conditions: 24 h drug exposure + 72 h recovery, SRB.
Data set [4] deals with MRC5 human lung fibroblasts. Kind of data set: Sulforhodamine B antiproliferative assay, MRC5. As to conditions: 24 h drug exposure + 72 h recovery, SRB; non-cancer fibroblasts. It counts as cell-based. As for the experimental part: as §1, §2, §3, §4, §5, §6
IC50 values (concentrations at which […]
After this time, cells were […]
(In SRB staining, fixed cells bind dye roughly in proportion to their protein.)

The subject of data set [5] is HCT116 colorectal carcinoma cells. The data set can be described thus: Sulforhodamine B antiproliferative assay, HCT116. It counts as cell-based, human. The conditions noted are these: 24 h drug exposure + 72 h recovery, SRB; read-out: Antiproliferative activity (IC50) HCT116 Colon.
Data set [6] deals with A2780Cis cisplatin-resistant ovarian carcinoma cells. The data set can be described thus: Sulforhodamine B antiproliferative assay, A2780Cis. The class given is cell-based, human. The conditions noted are these: 24 h drug exposure + 72 h recovery, SRB.
The test system of data set [7] is HCT116Ox oxaliplatin-resistant colorectal carcinoma cells. The data set can be described thus: Sulforhodamine B antiproliferative assay, HCT116Ox. It counts as cell-based, human. As to conditions: 24 h drug exposure + 72 h recovery, SRB, read-out: Antiproliferative activity (IC50) HCT116Ox Colon.
Data set [8] has as its system HCT116p21-/- P21-knockout colorectal carcinoma cells. The data set can be described thus: Sulforhodamine B antiproliferative assay, HCT116p21-/-. The conditions noted are these: 24 h drug exposure + 72 h recovery, SRB, read-out: Antiproliferative activity (IC50) HCT116p21-/- Colon. The class given is cell-based, human.
Data set [9] has as its system HCT116p53-/- P53-knockout colorectal carcinoma cells. Kind of data set: Sulforhodamine B antiproliferative assay, HCT116p53-/-. It counts as cell-based, human. The conditions noted are these: 24 h drug exposure + 72 h recovery, SRB, read-out: Antiproliferative activity (IC50) HCT116p53-/- Colon.
Data set [10] concerns AB wild-type zebrafish embryos. It counts as in vivo. The conditions noted are these: 96 h exposure, read-out: LC50 (Danio rerio) AB-WT.
Data set [11] concerns Singapore wild-type zebrafish embryos. It counts as in vivo, Danio rerio. The conditions noted are these: for LC50: zebrafish embryos, 96 h exposure, read-out: LC50 (Danio rerio) SG-WT. As for the experimental part: (§7) In vivo biological studies […]
(§8) wild-type zebrafish (SGWT) embryos (< 5 dpf). All animals were maintained in accordance with ASPA […]
(§9) maintained. Light cycle: 14 hours day, 10 hours night.
1 L breeding tank. Pairs were set up the previous evening. Males and females were separated by a divider. The divider was removed around 9am (dawn). Embryos were collected and placed into petri dishes with fresh egg water. […]

Data set [12] concerns Tubingen wild-type zebrafish embryos. Kind of data set: Zebrafish embryo toxicity (FET) test, TU-WT. As to conditions: 96 h exposure, read-out: LC50 (Danio rerio) TU-WT. The class given is in vivo.
For data set [13], the system named is A2780 cancer cells. The conditions noted are these: A2780, 20 μM verapamil, normalised Os. As for the experimental part: as §1
Cell culture. All cell lines were obtained from the European Collection of Cell Cultures (ECACC). […]
supplemented with 10% foetal calf serum, 1% 2 mM glutamine and 1% penicillin/streptomycin.
HCT116, HCT1116Ox, HCT116p21-/- and HCT116p53-/-, all of colon origin, were grown in McCoy’s Modified 5A medium supplemented with 10% foetal calf serum, 1% 2 mM glutamine and 1% penicillin/streptomycin. HOF normal ovarian fibroblasts were grown in fibroblast growth medium supplemented with 2% foetal calf serum, 1% 2 mM penicillin/streptomycin and 1% fibroblast growth factor. Cells were grown as adherent monolayers in 75 cm2 culture flasks at 310 K in a 5% CO2 humidified atmosphere and passaged at regular intervals using trypsin-EDTA.
After this time, the cells were washed with PBS and supplied
Sulforhodamine B cell viability colorimetric assay. Briefly, 5000 cells were seeded in a 96-well plate […]
mM) were prepared in medium with 5% v/v DMSO (concentration was determined after drug exposure by ICP-OES analysis for metal content). […] Cell viability was determined using the Sulforhodamine B assay.1 Cells […]
50% cell death occurred) are reported as averages with calculated standard deviations. Experiments were performed in triplicate as part as two independent experiments, and statistics calculated using two-tailed t-test assuming unequal variances (Welch’s t-test). […]

For data set [14], the system named is Singapore wild-type zebrafish. As to conditions: 1 or 2× LC50, 96 h, green ROS probe, confocal. The method, then:
as §7, §8, §9
1 L breeding tank. Pairs were set up the previous evening. Males and females were separated by a divider. The divider was removed around 9am (dawn). Embryos were collected and placed into petri dishes with fresh egg water.
Confocal microscopy (zebrafish). […]
or positive control samples.

Data set [15] relates to HOF human ovarian fibroblasts. The data set can be described thus: ROS/superoxide detection by flow cytometry, HOF. As to conditions: 24 h, 1.0 × IC50 (pyocyanin positive control 0.1 mM); for % Population Q2 FL1-H+ / FL2-H+: ROS and superoxide; for % Population Q1 FL1-H- / FL2-H+: superoxide only; for % Population Q3 FL1-H+ / FL2-H-: total ROS only. Background: A flow cytometer gives signals particle by particle.
Description: (§10) Reactive oxygen species (ROS) determination using flow cytometry. The generation of ROS and
(§11) superoxide in A2780 ovarian cancer cells was evaluated using the ROS/Superoxide detection kit (Enzo
(§12) Life Sciences) following the manufacturer’s protocol.
(§13) cells per well, and incubated for 24 h (310 K). After this time, cells were exposed to equipotent
The pellets were re-suspended in 500
(§14) μL PBS and stained with green fluorescent reagent for total ROS reading in the FL1-green channel (2
(§15) μL) and orange fluorescent reagent for superoxide reading in the FL2-red channel (2 μL). Positive
(§16) control samples were treated with pyocyanin (5 μL, 30 min). Single stained positive control samples
(§17) were used for compensation purposes. Data were obtained using a Becton Dickson FACScan Flow
(§18) Cytometer and processed using FlowJo V10 for Windows.

The subject of data set [16] is A2780 cancer cells. Kind of data set: ROS/superoxide detection by flow cytometry, A2780. The conditions noted are these: A2780, 24 h, 1.0 × IC50 (pyocyanin positive control 0.1 mM); for % Population Q1 FL1-H- / FL2-H+: superoxide only; for % Population Q3 FL1-H+ / FL2-H-: total ROS only.
Description: as §10, §11, §12, §13
The pellets were re-suspended in 500
as §14, §15, §16, §17, §18
The conditions of data set [17]: CV vs Ag/AgCl, 100 mV/s, 10^–3 M, CH3CN; electrochemically reversible.
Data set [18] has as its system HCT116 human colorectal cancer cells xenografts. As to conditions: cited from earlier work.

As to `Cc1ccc(C(C)C)cc1.Cc1ccc(S(=O)(=O)[N-]C(c2ccccc2)C([NH-])c2ccccc2)cc1.[Os+2]` (centres unmarked) [Complex 1, [Os(p-cymene)(Ts-DPEN)]], the IC50 in data set [1] was determined as 15500 ± 500 nM; in [2] it was 29900 ± 500 nM; in data set [3], 21100 ± 300 nM; in [4], 21400 ± 700 nM; in data set [5], 37000 ± 1000 nM; in data set [6], 21600 ± 200 nM. Further, the values for the IC50 in data set [7], in [8] and in data set [9] were 51000 ± 2000 nM, 106000 ± 2000 nM and 62000 ± 3000 nM, respectively. Moreover, the LC50 came out at 4300 ± 700 nM in [10], 2400 ± 400 nM in data set [11] and 2600 ± 300 nM in [12]. For the same molecule, in data set [13], the “% accumulation (recovery time) 48 h” value was 30 ± 2%. Besides, the “% accumulation (recovery time) 72 h” value in data set [13] was 17.8 ± 0.3%. Moreover, the “ROS generated in vivo in zebrafish” value in data set [14] is given as “elevated levels of ROS”. Also, the “% Population Q4 FL1-H- / FL2-H-” value was determined as 7.3 ± 0.5% in data set [15] and 2.4 ± 0.9% in data set [16]. Besides, the “% Population Q2 FL1-H+ / FL2-H+” value in data set [15] was determined as 38 ± 1%. The “% Population Q1 FL1-H- / FL2-H+” value in [15] is recorded as 9.1 ± 0.8%; in data set [16], 1.2 ± 0.2%. Moreover, the “% Population Q3 FL1-H+ / FL2-H-” value came out at 45.4 ± 0.7% in [15] and 0.3 ± 0.1% in [16].

As for `CN(C)c1ccc(N=Nc2ccccn2)cc1.Cc1ccc(C(C)C)cc1.F[P-](F)(F)(F)(F)F.[I][Os+]` [Complex 10, [Os(Azpy-NMe2)(p-cymene)I]PF6], the IC50 in data set [1] was determined as 150 ± 10 nM; in data set [2], 2320 ± 10 nM; in data set [3], 1100 ± 200 nM; in data set [4], 4500 ± 300 nM; in [5], 260 ± 30 nM; in data set [6], 150 ± 10 nM. Besides, the IC50 turned out to be 960 ± 50 nM in data set [7], 1640 ± 80 nM in data set [8] and 1100 ± 70 nM in [9]. Besides, the LC50 in data set [10] was determined as 16800 ± 800 nM; in data set [11] it was 24300 ± 400 nM; in [12] it was 17000 ± 1000 nM. Also, the “Fold less toxic toward zebrafish embryos compared to cisplatin” value in [11] (LC50 ratio vs cisplatin) amounted to 40 ×. The “ROS generated in vivo in zebrafish” value in data set [14] was “elevated levels of ROS”. The “First reduction step potential” value in [17] is “ca. −0.4 V”. The “Effect on growth of xenografts” value in [18] (HCT116 xenografts in mice) is recorded as “delay the growth of xenografts”. Also, in [18] (xenograft-bearing mice), the “Toxic side effects in xenograft-bearing mice” value is given as “few toxic side effects”. Further, the “% Population Q4 FL1-H- / FL2-H-” value is on record as 3.9 ± 0.3% in data set [15] and 0.41 ± 0.02% in [16]. Besides, the “% Population Q2 FL1-H+ / FL2-H+” value in data set [15] came to 61 ± 1%. Further, the “% Population Q1 FL1-H- / FL2-H+” value in data set [15] is given as 11.3 ± 0.5%; in data set [16], 1.65 ± 0.09%. Besides, the “% Population Q3 FL1-H+ / FL2-H-” value is on record as 24.1 ± 0.9% in data set [15] and 2.47 ± 0.08% in data set [16].

Turning to `CN(C)c1ccc(N=Nc2ccccn2)cc1.F[P-](F)(F)(F)(F)F.[I][Os+].c1ccc(-c2ccccc2)cc1` [Complex 12, [Os(Azpy-NMe2)(biphenyl)I]PF6], the IC50 worked out at 140 ± 10 nM in data set [1]; 350 ± 20 nM in data set [2]; 270 ± 30 nM in data set [3]; 420 ± 30 nM in [4]; 820 ± 90 nM in data set [5]; 110 ± 10 nM in [6]. For the same molecule, the IC50 in [7] came out at 330 ± 50 nM; in data set [8] it was 330 ± 20 nM; in [9] it was 390 ± 20 nM. Further, the LC50 was found to be 7700 ± 100 nM in [10], 6600 ± 400 nM in [11] and 6500 ± 800 nM in data set [12]. For the same molecule, in data set [17], the “First reduction step potential” value is reported as “ca. −0.4 V”.
